“Also recorded” adds a separate entry of the source.
What was measured:
[1] = tested on: F. graminearum CBS 185.32; type: cell-based, Fusarium graminearum
[2] = tested on: F. graminearum CBS 185.32; type: cell-based, Fusarium graminearum; remark: listed apart in the source
[3] = tested on: Fusarium culmorum and Fusarium graminearum; conditions: cited from earlier work

Substance	fungal growth / dry fungal biomass (antifungal activity) [1]	15-ADON production [2]	DON production [2]	also measured
C G N F L K R T C I C V K K (CGNFLKRTCICVKK) [TickCore3, conserved linear gamma core moiety of the tick defensin DefMT3]	significantly inhibited fungal growth at all the concentrations tested	non-detectable levels; also recorded: residual levels	non-detectable levels	inhibition of TCTB mycotoxin production (DON and 15-ADON together) [2]: inhibits the production of category B trichothecenes
C G N F L K R T C I C V K T (CGNFLKRTCICVKT) [TickCore3-K14T]	strong antifungal activity only at 50 μM	–	–	–
C G N F L K R T C I C V T K (CGNFLKRTCICVTK) [TickCore3-K13T]	strong antifungal activity only at 50 μM	–	–	–
C G N F L K T T C I C V K K (CGNFLKTTCICVKK) [TickCore3-R7T]	strong antifungal activity only at 50 μM	–	–	–
C G N F L T R T C I C V K K (CGNFLTRTCICVKK) [TickCore3-K6T]	no antifungal activity below the concentration at 50 μM	–	–	inhibition of TCTB mycotoxin production (DON and 15-ADON together) [2]: reduction in the ability to inhibit TCTB production is particularly pronounced
C(CH3)GNFLKRTC(CH3)IC(CH3)VKK [TickCore3-CH3-123]	–	significantly less	significantly less	inhibition of TCTB mycotoxin production (DON and 15-ADON together) [2]: little effect on the inhibitory effect affecting TCTB production
C(CH3)GNFLKRTCRICVKK [TickCore3-CH3-1 Ox]	no effect on fungal growth at any of the concentrations tested	–	–	15-ADON levels [2]: significant reduction; DON levels [2]: significant reduction
CGNFLKRTC(CH3)ICVKK [TickCore3-CH3-2 Ox]	no effect on fungal growth at any of the concentrations tested	did not change significantly	significant increase	–
CGNFLKRTCIC(CH3)VKK [TickCore3-CH3-3 Ox]	no effect on fungal growth at any of the concentrations tested	significant increase	significant increase	–
DefMT6: tick defensin described in Tonk et al., 2015 (GFGCPLNQGACHNHCRSIKRRGGYCSGIIKQTCTCYRK; DefMT6) [reference compound]	–	–	–	antibacterial and antifungal activity [3]: antibacterial and antifungal activity
GGYYCPFRQDKCHRHCRSFGRKAGYCGNFLKRTCICVKK (DefMT3) [tick defensin, synthesized by SPPS]	–	shows inhibitory activity	shows inhibitory activity	antibacterial and antifungal activity [3]: antibacterial and antifungal activity

— patent US20230157302A1, “METHODS FOR […] MYCOTOXIN PRODUCTION” (Institut National de Recherche Pour L'Agriculture, …, priority 2020, published 2023)
